pIC50: −log10 of the molar value.
How the values were obtained:
Histone deacetylase = assay: Inhibition of HDAC (unknown origin); assay type: protein assay, Homo sapiens
THP-1 = assay: Growth inhibition of human THP-1 cells; assay type: functional
Histone deacetylase 1 [1] = biological target: T1, Histone deacetylase 1 (Homo sapiens, UniProt Q13547); assay: Inhibition of HDAC1 (unknown origin)
[2] = biological target: T2, Bromodomain-containing protein 4 (Homo sapiens, UniProt O60885); assay: Inhibition of BRD4 (unknown origin)
[3] = biological target: T3, Epidermal growth factor receptor (Homo sapiens, UniProt P00533); assay: Inhibition of EGFR (unknown origin)
[4] = biological target: T2, Bromodomain-containing protein 4; assay: Inhibition of BRD4 BD2 domain (unknown origin)
OCI-AML2 = assay: Antiproliferative activity against human OCI-AML2 cells by MTT assay; assay type: functional, cell-based
MV4-11 = assay: Antiproliferative activity against human MV4-11 cells by MTT assay; assay type: functional, cell-based
OCI-AML-3 = assay: Antiproliferative activity against human OCI-AML-3 cells by MTT assay; assay type: functional, cell-based
MCF7 = assay: Cytotoxicity against human MCF7 cells assessed as reduction in cell viability by MTT assay; assay type: functional, cell-based
[5] = biological target: T3, Epidermal growth factor receptor; assay: Inhibition of GST-tagged EGFR (unknown origin) at 10 ug/ml using biotinylated peptide as substrate in presence of ATP relative to control; conditions: dose 10.0 µg/ml
[6] = biological target: Receptor tyrosine-protein kinase erbB-2 (Homo sapiens) (UniProt P04626); assay: Inhibition of HER2 (unknown origin) at 10 ug/ml using biotinylated peptide as substrate in presence of ATP relative to control; conditions: dose 10.0 µg/ml
Histone deacetylase 1 [7] = biological target: T1, Histone deacetylase 1; assay: Inhibition of recombinant human HDAC1 expressed in baculovirus expression system using Ac-Lys-Tyr-Lys (epsilon-acetyl)-AMC as substrate after 24 hrs by fluorescence assay
[8] = biological target: Protein deacetylase HDAC6 (Homo sapiens, UniProt Q9UBN7); assay: Inhibition of recombinant human HDAC6 expressed in baculovirus expression system using Ac-Lys-Tyr-Lys (epsilon-acetyl)-AMC as substrate after 24 hrs by fluorescence assay
Histone deacetylase 3 = Histone deacetylase 3 (Homo sapiens, UniProt O15379); assay: Inhibition of recombinant human HDAC3 expressed in baculovirus expression system using Ac-Lys-Tyr-Lys (epsilon-acetyl)-AMC as substrate after 24 hrs by fluorescence assay
Sequence of Histone deacetylase 3 (O15379 whole entry): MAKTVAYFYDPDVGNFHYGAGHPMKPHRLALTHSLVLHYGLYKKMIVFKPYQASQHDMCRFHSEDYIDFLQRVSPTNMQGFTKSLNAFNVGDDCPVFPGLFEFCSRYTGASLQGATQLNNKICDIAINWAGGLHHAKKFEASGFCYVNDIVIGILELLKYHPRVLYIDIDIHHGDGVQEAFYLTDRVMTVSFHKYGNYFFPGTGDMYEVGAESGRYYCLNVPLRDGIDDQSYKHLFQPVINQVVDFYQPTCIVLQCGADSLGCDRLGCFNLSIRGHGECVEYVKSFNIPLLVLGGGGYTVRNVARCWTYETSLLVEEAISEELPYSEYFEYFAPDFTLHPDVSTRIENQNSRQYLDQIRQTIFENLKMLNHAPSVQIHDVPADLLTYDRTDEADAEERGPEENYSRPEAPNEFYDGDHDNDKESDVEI

T1 sequence (Q13547 whole entry): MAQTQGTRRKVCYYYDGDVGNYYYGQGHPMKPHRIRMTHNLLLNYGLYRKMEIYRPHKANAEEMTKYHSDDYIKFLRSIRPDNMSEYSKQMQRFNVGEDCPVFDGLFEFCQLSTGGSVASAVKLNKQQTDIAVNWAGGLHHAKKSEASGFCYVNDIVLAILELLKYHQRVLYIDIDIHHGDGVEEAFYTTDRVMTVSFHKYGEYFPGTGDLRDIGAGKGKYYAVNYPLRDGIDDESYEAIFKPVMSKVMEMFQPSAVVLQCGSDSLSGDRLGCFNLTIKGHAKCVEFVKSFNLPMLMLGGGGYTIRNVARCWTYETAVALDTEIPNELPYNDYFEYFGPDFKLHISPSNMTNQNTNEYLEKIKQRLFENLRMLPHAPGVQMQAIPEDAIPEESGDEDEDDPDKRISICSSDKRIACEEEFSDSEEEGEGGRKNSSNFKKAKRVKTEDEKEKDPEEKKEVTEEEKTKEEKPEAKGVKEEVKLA
T3 sequence (P00533 whole entry, the tested form may be a part): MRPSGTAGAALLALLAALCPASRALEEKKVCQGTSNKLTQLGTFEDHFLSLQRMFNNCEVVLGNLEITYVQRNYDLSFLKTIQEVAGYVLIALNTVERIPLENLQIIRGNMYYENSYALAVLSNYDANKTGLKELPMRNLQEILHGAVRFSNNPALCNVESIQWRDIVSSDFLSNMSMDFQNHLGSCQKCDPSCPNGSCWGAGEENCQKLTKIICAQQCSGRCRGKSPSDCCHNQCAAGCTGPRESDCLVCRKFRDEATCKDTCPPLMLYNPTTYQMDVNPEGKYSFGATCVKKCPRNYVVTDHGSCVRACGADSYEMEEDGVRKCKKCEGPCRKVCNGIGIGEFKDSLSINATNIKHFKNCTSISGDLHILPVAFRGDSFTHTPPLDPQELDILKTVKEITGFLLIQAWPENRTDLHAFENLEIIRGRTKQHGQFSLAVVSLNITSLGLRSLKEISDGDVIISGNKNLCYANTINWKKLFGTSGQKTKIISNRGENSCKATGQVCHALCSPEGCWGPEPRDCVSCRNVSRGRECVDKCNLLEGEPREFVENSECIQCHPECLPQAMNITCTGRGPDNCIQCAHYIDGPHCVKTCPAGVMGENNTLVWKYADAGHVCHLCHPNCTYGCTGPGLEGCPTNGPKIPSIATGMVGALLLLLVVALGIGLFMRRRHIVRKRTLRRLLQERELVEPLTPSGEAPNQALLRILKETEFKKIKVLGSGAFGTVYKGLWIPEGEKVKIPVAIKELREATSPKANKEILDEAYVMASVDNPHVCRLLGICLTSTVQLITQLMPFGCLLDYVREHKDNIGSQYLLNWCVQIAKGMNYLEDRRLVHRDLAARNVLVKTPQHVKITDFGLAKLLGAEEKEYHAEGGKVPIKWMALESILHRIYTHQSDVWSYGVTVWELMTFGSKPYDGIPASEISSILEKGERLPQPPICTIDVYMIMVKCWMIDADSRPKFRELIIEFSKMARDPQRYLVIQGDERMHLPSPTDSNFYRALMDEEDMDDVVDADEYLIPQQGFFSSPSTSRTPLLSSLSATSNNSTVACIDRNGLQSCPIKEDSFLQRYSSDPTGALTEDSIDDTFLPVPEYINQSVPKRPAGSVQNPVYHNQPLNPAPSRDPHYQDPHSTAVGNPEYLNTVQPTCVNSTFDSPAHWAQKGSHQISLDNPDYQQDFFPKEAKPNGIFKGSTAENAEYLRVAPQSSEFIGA
Sequence of Protein deacetylase HDAC6 (Q9UBN7 whole entry): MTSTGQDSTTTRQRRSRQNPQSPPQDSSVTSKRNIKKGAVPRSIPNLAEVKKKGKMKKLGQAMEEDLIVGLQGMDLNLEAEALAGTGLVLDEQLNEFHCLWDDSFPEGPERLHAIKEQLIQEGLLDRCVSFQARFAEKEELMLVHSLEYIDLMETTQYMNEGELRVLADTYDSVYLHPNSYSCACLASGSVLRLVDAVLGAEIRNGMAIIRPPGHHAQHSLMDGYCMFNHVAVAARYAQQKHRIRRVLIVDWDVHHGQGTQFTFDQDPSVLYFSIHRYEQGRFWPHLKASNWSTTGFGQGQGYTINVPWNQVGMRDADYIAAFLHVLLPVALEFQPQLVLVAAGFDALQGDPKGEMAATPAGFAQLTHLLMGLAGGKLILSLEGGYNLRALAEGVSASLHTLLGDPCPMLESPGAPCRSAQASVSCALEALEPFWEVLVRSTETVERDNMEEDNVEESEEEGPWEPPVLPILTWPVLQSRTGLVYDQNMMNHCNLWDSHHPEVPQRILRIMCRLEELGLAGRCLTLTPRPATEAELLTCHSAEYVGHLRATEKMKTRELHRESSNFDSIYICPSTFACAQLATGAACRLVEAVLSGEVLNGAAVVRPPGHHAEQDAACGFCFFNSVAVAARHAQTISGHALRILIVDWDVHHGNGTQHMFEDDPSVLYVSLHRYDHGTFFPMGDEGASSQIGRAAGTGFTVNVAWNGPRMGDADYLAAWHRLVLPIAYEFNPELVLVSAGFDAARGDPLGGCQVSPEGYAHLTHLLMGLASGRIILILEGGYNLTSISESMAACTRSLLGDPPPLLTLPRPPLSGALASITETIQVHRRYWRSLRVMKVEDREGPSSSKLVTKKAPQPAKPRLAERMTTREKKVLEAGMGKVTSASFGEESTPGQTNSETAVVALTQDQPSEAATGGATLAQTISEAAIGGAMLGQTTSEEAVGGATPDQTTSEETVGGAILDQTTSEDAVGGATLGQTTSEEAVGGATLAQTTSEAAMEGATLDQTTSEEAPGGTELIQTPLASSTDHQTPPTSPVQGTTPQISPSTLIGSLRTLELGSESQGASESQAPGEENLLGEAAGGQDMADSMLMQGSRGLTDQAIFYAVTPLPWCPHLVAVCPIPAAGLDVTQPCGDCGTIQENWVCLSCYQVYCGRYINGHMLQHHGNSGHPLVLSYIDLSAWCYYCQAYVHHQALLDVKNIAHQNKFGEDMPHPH
Sequence of Receptor tyrosine-protein kinase erbB-2 (Homo sapiens) (P04626 whole entry): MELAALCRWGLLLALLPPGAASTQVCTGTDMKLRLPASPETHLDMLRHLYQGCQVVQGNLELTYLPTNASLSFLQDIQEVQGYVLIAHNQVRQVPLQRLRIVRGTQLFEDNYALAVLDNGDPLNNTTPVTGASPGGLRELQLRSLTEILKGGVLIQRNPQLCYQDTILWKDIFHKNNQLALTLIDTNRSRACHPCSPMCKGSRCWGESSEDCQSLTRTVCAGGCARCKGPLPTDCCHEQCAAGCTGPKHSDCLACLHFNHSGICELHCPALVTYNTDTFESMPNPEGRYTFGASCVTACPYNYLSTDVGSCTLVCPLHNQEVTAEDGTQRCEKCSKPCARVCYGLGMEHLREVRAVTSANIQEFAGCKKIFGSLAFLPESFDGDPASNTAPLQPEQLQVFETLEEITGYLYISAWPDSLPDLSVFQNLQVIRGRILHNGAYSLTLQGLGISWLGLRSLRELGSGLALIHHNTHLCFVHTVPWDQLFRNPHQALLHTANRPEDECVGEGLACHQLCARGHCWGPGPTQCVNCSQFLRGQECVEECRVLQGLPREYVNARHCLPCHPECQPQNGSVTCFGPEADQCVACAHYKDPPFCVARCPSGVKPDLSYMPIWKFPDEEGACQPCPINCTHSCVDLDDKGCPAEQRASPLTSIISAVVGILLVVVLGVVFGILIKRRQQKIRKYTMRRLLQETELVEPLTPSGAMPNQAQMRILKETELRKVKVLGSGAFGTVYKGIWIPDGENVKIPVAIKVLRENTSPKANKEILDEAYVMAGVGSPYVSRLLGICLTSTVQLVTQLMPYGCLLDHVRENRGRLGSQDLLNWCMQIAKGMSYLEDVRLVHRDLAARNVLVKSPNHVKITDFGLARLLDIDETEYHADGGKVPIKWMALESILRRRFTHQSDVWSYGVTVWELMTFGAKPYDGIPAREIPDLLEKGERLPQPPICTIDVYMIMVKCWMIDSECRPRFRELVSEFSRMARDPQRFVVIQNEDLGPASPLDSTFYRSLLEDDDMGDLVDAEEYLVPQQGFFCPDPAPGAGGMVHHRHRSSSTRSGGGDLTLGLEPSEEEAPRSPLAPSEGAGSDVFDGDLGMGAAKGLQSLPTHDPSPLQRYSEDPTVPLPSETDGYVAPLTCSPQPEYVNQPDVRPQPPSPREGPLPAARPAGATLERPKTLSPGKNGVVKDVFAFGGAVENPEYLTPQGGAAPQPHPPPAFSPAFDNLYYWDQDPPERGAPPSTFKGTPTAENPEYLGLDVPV

| Compound | IC50 (Histone deacetylase) [µM] | GI50 (THP-1) [µM] | further results |
| --- | --- | --- | --- |
| Cn1cc(-c2ccnc(Nc3ccc(C(=O)NCCC(=O)NO)cc3)n2)c2ccccc21 | < 1 | – | – |
| COc1cc(O)c(C(=O)Nc2ccc(F)c(Cl)c2)cc1NC(=O)CCCCCC(=O)NO | < 1 | – | – |
| Cc1ccc(Cc2cn(CCCCCC(=O)NO)c3ccc(-c4c(C)noc4C)cc23)cc1 | 0.291 | 15.5 | – |
| O=C(CCCCCC(=O)Nc1ccc(O)c(C(=O)Nc2cccc(C(F)(F)F)c2)c1)NO | < 1 | – | – |
| Cc1noc(C)c1-c1ccc2c(c1)c(CCc1ccccc1)cn2CCCCCCC(=O)NO | 0.291 | 15.5 | – |
| O=C(CCCCCC(=O)Nc1ccc(O)c(C(=O)Nc2ccc(F)c(F)c2)c1)NO | < 1 | – | – |
| O=C(CCCCCC(=O)Nc1ccc(O)c(C(=O)Nc2ccc(OCc3cccc(F)c3)c(Cl)c2)c1)NO | < 1 | – | – |
| COc1cc(OC)c2c(=O)[nH]c(-c3ccc(OCCCCCC(=O)NO)cc3)nc2c1 | 0.291 | 15.5 | – |
| CC(=O)N1c2ccc(-c3ccc(NC(=O)CCCCCCC(=O)NO)cc3)cc2[C@H](NC(=O)OC(C)C)C[C@@H]1C | – | – | pIC50 (Histone deacetylase 1 [1]): 6.82 |
| Cn1cc(-c2ccnc(Nc3ccc(C(=O)NO)cc3)n2)c2ccccc21 | < 1 | – | – |
| C#Cc1cccc(NC(=O)c2cc(NC(=O)CCCCCC(=O)NO)ccc2O)c1 | < 1 | – | – |
| Cn1cc(-c2ccnc(Nc3ccc(C(=O)Nc4ccccc4N)cc3)n2)c2ccccc21 | < 1 | – | – |
| C#Cc1cccc(NC(=O)c2cc(NC(=O)CCCCCCC(=O)NO)ccc2O)c1 | < 1 | – | – |
| COC(c1c(F)cccc1Cl)c1c[nH]c2ncc(-c3c(C)noc3C)cc12 (stereo not given) | 0.291 | 15.5 | – |
| COc1cc(OC)c2c(=O)[nH]c(-c3cc(C)c(OCCCCC(=O)NO)c(C)c3)nc2c1 | – | – | pIC50 (Histone deacetylase 1 [1]): 6.82; pIC50 [2]: 6.17 |
| Cn1cc(-c2ccnc(Nc3ccc(C(=O)NCCCC(=O)NO)cc3)n2)c2ccccc21 | < 1 | – | – |
| O=C(CCCCCCC(=O)Nc1ccccc1)NO [VORINOSTAT] | – | – | pIC50 [3]: 6.05 |
| Cc1noc(C)c1-c1cc(NC(=O)CCCCCC(=O)NO)cc(C(=O)c2ccccc2)c1 | – | – | pIC50 (Histone deacetylase 1 [1]): 6.82; pIC50 [2]: 6.17 |
| COc1cc(OC)c2c(=O)[nH]c(-c3ccc(OCCCC(=O)NO)cc3)nc2c1 | 0.032 | 15.5 | pIC50 [4]: 6.65; pIC50 (OCI-AML2): 5.82; pIC50 (MV4-11): 5.78; pIC50 (OCI-AML-3): 5.96 |
| Cc1noc(C)c1-c1ccc2c(c1)c(CCc1ccccc1)cn2CCCCCC(=O)NO | 0.291 | 15.5 | – |

| Compound | IC50 (Histone deacetylase) [µM] | GI50 (THP-1) [µM] | further results |
| --- | --- | --- | --- |
| COc1cc(C(=O)NCCC(=O)NO)ccc1Nc1nccc(-c2cn(C)c3ccccc23)n1 | < 1 | – | – |
| COc1cc(C(=O)NCCCC(=O)NO)ccc1Nc1nccc(-c2cn(C)c3ccccc23)n1 | < 1 | – | – |
| O=C(CCCCCC(=O)Nc1ccc(O)c(C(=O)Nc2ccc(Cl)c(C(F)(F)F)c2)c1)NO | < 1 | – | – |
| COc1cc(OC)c2c(=O)[nH]c(-c3ccc(OC/C=C/C(=O)NO)cc3)nc2c1 | 0.291 | 15.5 | – |
| Cc1noc(C)c1-c1ccc2c(c1)c(CCc1ccc(F)cc1)cn2CCCCCC(=O)NO | 0.291 | 15.5 | – |
| Cc1ccccc1Cc1cn(CCCCCCC(=O)NO)c2ccc(-c3c(C)noc3C)cc12 | 0.291 | 15.5 | – |
| C#Cc1cccc(NC(=O)c2cc(NC(=O)CCCCCC(=O)NO)c(OC)cc2O)c1 | < 1 | – | – |
| O=C(CCCCCC(=O)Nc1ccc(O)c(C(=O)Nc2ccc(F)c(Cl)c2)c1)NO | < 1 | – | – |
| COc1cc(OC)c2c(=O)[nH]c(-c3ccc(OCCCCCCC(=O)NO)cc3)nc2c1 | 0.291 | 15.5 | – |
| COc1cc(OC)c2c(=O)[nH]c(-c3ccc(OCCCCCCCC(=O)NO)cc3)nc2c1 | 0.291 | 15.5 | – |
| O=C(CCCCCC(=O)Nc1ccc(O)c(C(=O)Nc2cccc(F)c2)c1)NO | < 1 | – | – |
| Cc1noc(C)c1-c1ccc2c(c1)c(Cc1ccc(F)cc1)cn2CCCCCC(=O)NO | 0.291 | 15.5 | – |
| COc1cc(OC)c2c(=O)[nH]c(-c3cc(C)c(OCCCCCC(=O)NO)c(C)c3)nc2c1 | 0.291 | 15.5 | – |
| Cn1cc(-c2ccnc(Nc3ccc(C(=O)NCCCCC(=O)NO)cc3)n2)c2ccccc21 | < 1 | – | – |
| COc1cc(OC)c2c(=O)[nH]c(-c3ccc(OCc4ccc(/C=C/C(=O)NO)cc4)cc3)nc2c1 | 0.291 | 15.5 | – |
| COc1cc(OC)c2c(=O)[nH]c(-c3ccc(OCCCCC(=O)NO)cc3)nc2c1 | 0.291 | 15.5 | – |
| Cc1ccc(Cc2cn(CCCCCCC(=O)NO)c3ccc(-c4c(C)noc4C)cc23)cc1 | 0.291 | 15.5 | – |
| Cn1cc(-c2ccnc(Nc3ccc(C(=O)NCCCCCC(=O)NO)cc3)n2)c2ccccc21 | < 1 | – | – |
| COc1cc(OC)c2c(=O)[nH]c(-c3cc(C)c(O)c(C)c3)nc2c1 | 291 | 15.5 | – |
| COc1cc(OC)c2c(=O)[nH]c(-c3ccc(Oc4ccc(C(=O)NO)cn4)cc3)nc2c1 | 0.291 | 15.5 | – |

| Compound | IC50 (Histone deacetylase) [µM] | GI50 (THP-1) [µM] | further results |
| --- | --- | --- | --- |
| Cc1ccccc1Cc1cn(CCCCCC(=O)NO)c2ccc(-c3c(C)noc3C)cc12 | 0.291 | 15.5 | – |
| Cc1cccc(Cc2cn(CCCCCCC(=O)NO)c3ccc(-c4c(C)noc4C)cc23)c1 | 0.291 | 15.5 | – |
| O=C(CCCCCC(=O)Nc1ccc(O)c(C(=O)Nc2ccccc2)c1)NO | < 1 | – | – |
| O=C(CCCCCC(=O)Nc1ccc(O)c(C(=O)Nc2ccc(Cl)c(Cl)c2)c1)NO | < 1 | – | – |
| O=C(CCCCOc1ccccc1C(=O)Nc1cccc2[nH]cnc12)NO | 2.7 | – | pIC50 (Histone deacetylase 1 [1]): 6.82; pIC50 [2]: 6.59 |
| C#Cc1cccc(NC(=O)c2cc(OCCCCCCC(=O)NO)ccc2O)c1 | < 1 | – | – |
| Cc1noc(C)c1-c1ccc2c(c1)c(CCc1ccc(F)cc1)cn2CCCCCCC(=O)NO | 0.291 | 15.5 | – |
| COc1cc(C(=O)NCCCCCCC(=O)NO)ccc1Nc1nccc(-c2cn(C)c3ccccc23)n1 | < 1 | – | – |
| COc1cc(C(=O)NCCCCCC(=O)NO)ccc1Nc1nccc(-c2cn(C)c3ccccc23)n1 | < 1 | – | – |
| Cc1cccc(Cc2cn(CCCCCC(=O)NO)c3ccc(-c4c(C)noc4C)cc23)c1 | 0.291 | 15.5 | – |
| COc1cc(C(=O)NCCCCC(=O)NO)ccc1Nc1nccc(-c2cn(C)c3ccccc23)n1 | < 1 | – | – |
| COc1cc2/c(=N/c3ccc(Br)cc3F)nc[nH]c2cc1OCC1CCN(C)CC1 [VANDETANIB] | – | – | pIC50 (MCF7): 4.73 |
| Cc1noc(C)c1-c1ccc2c(c1)c(Cc1ccc(F)cc1)cn2CCCCCCC(=O)NO | – | – | pIC50 (Histone deacetylase 1 [1]): 6.82; pIC50 [2]: 6.17 |
| Cc1noc(C)c1-c1ccc2c(c1)c(Cc1ccccc1)cn2CCCCCCC(=O)NO | 0.291 | 15.5 | – |
| COc1cc(OC)c2c(=O)[nH]c(-c3ccc(OCc4cc(C)c(/C=C/C(=O)NO)c(C)c4)cc3)nc2c1 | 0.291 | 15.5 | – |
| Cc1sc2c(c1C)C(c1ccc(Cl)cc1)=N[C@@H](CC(=O)OC(C)(C)C)c1nnc(C)n1-2 | 0.291 | 15.5 | – |
| C=CC(=O)Nc1cc(Nc2nccc(-c3cn(C)c4ccccc34)n2)c(OC)cc1N(C)CCN(C)C [OSIMERTINIB] | < 1 | – | – |
| COCCOc1cc2ncnc(Nc3ccc(/C=C/C(=O)NO)cc3)c2cc1OCCOC | – | – | inhibition [5]: 70%; inhibition [6]: 84%; pIC50 (Histone deacetylase 1 [7]): 6.80; pIC50 [8]: 6.25; pIC50 (Histone deacetylase 3): 6.74 |
| Cc1noc(C)c1-c1ccc2c(c1)c(Cc1ccccc1)cn2CCCCCC(=O)NO | 0.291 | 15.5 | – |
| Cc1noc(C)c1-c1ccc2c(c1)c(Cc1cccc(C(F)(F)F)c1)cn2CCCCCC(=O)NO | 0.291 | 15.5 | – |

Source: ChEMBL document CHEMBL4725227, “Dual-Target Inhibitors Based on HDACs: Novel Antitumor Agents for Cancer Therapy” (J Med Chem, 2020)
